Our source for the TGI values is PubChem BioAssay (NCI).

Common to all, as to assay: NCI tumour cell line growth inhibition, 48 h
Test [1] has as its system DLD-1 colon.
Test [2] deals with HOP-92 NSCLC.
The subject of test [3] is K-562 leukemia.
The test system of test [4] is KM12 colon.
The test system of test [5] is KM20L2 colon.
For test [6], the system named is LXFL 529 NSCLC.
Test [7] deals with M19-MEL melanoma.
In test [8] the test system is MCF7 breast.
Test [9] relates to OVCAR-4 ovarian.
Test [10] relates to SN12C renal.
Test [11] relates to XF 498 CNS.

Molecules are shown by their SMILES.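 Test compounds were applied to cells in 96-well plates for 48 hours at 5 doses. TGI: total growth inhibition.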

As to `CC[N+]1(C)CCC(O)(/C=C/c2ccccc2)C(C(=O)/C=C/c2ccccc2)C1` (stereo not drawn), the TGI in test [1] was determined as 37.3 µM; in [2] it was 31.4 µM; in test [3], 10.8 µM; in test [4], 10.2 µM; in test [5], 49.3 µM; in test [6], 6.7 µM. Further, the TGI in [7] was 27.3 µM; in [8] it was over 23.7 µM; in [9], 43.7 µM; in test [10], 18 µM; in test [11] it was 26.7 µM.
Consider `O=C1[C@@H]2C3C=CC([C@H]4C(=O)N(CO)C(=O)[C@@H]34)[C@@H]2C(=O)N1CO`, for which the TGI in [1] is over 74.1 µM; in test [2], over 100 µM; in [3] it was over 100 µM; in test [4], over 100 µM; in test [5], over 31.6 µM; in [6], over 100 µM. For the same compound, the TGI in test [7] was over 58.8 µM; in test [9], over 100 µM; in test [10] it was over 100 µM; in [11], over 100 µM.
Consider `O=C(NC(c1ccccc1)C(O)C(=O)OCc1ccc2c(c1)C(=O)c1ccccc1C2=O)c1ccccc1` (stereo not drawn), for which the TGI was over 100 µM in test [1]; 7.91 µM in [2]; over 100 µM in test [3]; over 97.4 µM in test [4]; over 100 µM in test [5]; over 100 µM in [6]. Further, the TGI in [7] is over 100 µM; in [8], over 100 µM; in test [9] it was 4.99 µM; in [10], 47.9 µM; in test [11], 35.9 µM.
Regarding `COC(=O)c1cc(CNCCc2c[nH]c3ccccc23)on1`, the TGI in [1], in [2], in test [3], in test [4], in [5] and in test [6] was over 100 µM each time. Moreover, the TGI in test [7] was over 100 µM; in [8], over 100 µM; in test [9], over 83.3 µM; in test [10], over 100 µM; in test [11], 67.4 µM.
Turning to `O=[N+]([O-])c1ccc(-c2ccc(C3=Nn4c(nnc4-c4ccc(Cl)cc4)SC3)o2)cc1`, the TGI in test [1] was over 100 µM; in test [2], over 75.8 µM; in test [3] it was over 100 µM; in test [4], over 100 µM; in [5], over 100 µM; in test [6], over 100 µM. Moreover, the TGI in test [7] is over 100 µM; in test [9] it was over 100 µM; in test [10], over 100 µM; in [11] it was 60.1 µM.
In the case of `CCOc1ccccc1Nc1nc(C)c(C(=O)CC(=O)C(=O)Nc2ccccc2)s1`, the TGI in test [1], in test [2], in test [3], in test [4], in test [5] and in test [6] was over 100 µM each time. Besides, the TGI in test [7], in test [9], in test [10] and in [11] was over 100 µM each time.
For the compound `COC(=O)C1CCC2(CC1)NC(=O)NC2=O` (stereo not drawn), the TGI in test [1], in test [2], in [3], in [4], in [5] and in test [6] was over 100 µM throughout. For the same compound, the TGI in [7], in test [9], in [10] and in [11] was over 100 µM each time.
With `COc1cc(C2C(C(=O)Nc3ccc(Cl)c(Cl)c3)=C(C)NC(C)=C2C(=O)Nc2ccc(Cl)c(Cl)c2)ccc1O`, the TGI was found to be 22.4 µM in [1]; 11.1 µM in test [2]; 26.2 µM in [3]; 27 µM in test [4]; 54.7 µM in [5]; 21.2 µM in test [6]. The TGI in test [7] worked out at 32 µM; in test [9], 23 µM; in test [10], 30.9 µM; in test [11] it was 33.1 µM.
Take `Cc1cn2cc(-c3ccncc3)nc2s1`: the TGI in test [1], in test [2], in test [3], in test [4], in test [5] and in test [6] was over 100 µM in each case. The TGI in test [7], in [9], in test [10] and in test [11] was over 100 µM in each case.
On to `COc1cc(/C=C/C(=O)C(C)(C)C)cc(OC)c1OC`, for which the TGI in test [1] is over 100 µM; in test [2], over 100 µM; in [3] it was over 100 µM; in test [4], 52.7 µM; in test [5], over 100 µM; in test [6] it was 93.5 µM. The TGI in test [7], in test [9], in test [10] and in [11] was over 100 µM each time.
Consider `CCCCCC1C2C(=O)NC(=O)C1C(=O)NC2=O` (stereo not drawn), for which the TGI in test [1], in [2], in test [3], in [4], in test [5] and in test [6] was over 100 µM in each case. The TGI in test [7], in test [9], in [10] and in test [11] was over 100 µM each time.
As to `CC(C)CCC[C@@H](C)[C@H]1CC[C@H]2[C@@H]3CC=C4CC(OCCCCN(O)CCCSC5OC(CO)C(O)C(O)C5O)CC[C@]4(C)[C@H]3CC[C@]12C` (stereo partly drawn), the TGI is over 100 µM in [1]; over 100 µM in [2]; over 100 µM in test [3]; over 100 µM in [4]; over 100 µM in test [5]; 47.3 µM in test [6]. For the same compound, the TGI in [7], in test [9], in [10] and in [11] was over 100 µM throughout.
Take `O=c1c2ccccc2nc(-c2ccccc2Cl)n1NC1OC(CO)C(O)C(O)C1O` (stereo not drawn): the TGI in test [1], in test [2], in [3], in [4], in test [5] and in [6] was over 100 µM in each case. Further, the TGI in test [7], in test [9], in test [10] and in test [11] was over 100 µM each time.
For the compound `Cc1nc2c(=O)n(C)c(=O)nc-2n(-c2ccc(Cl)cc2)c1C`, the TGI in test [1], in [2], in test [3], in [4], in [5] and in test [6] was over 100 µM each time. In addition, the TGI in test [7] was over 100 µM; in test [9], 84.4 µM; in test [10], over 100 µM; in test [11] it was over 100 µM.
With `O=C1OC2C(O)COC2(OCc2c[nH]c3ccccc23)C1O` (stereo not drawn) (tested in a mixture with another compound), the TGI in test [1], in test [2], in [3], in [4], in test [5] and in test [6] was over 100 µM in each case. The TGI in [7], in test [9], in [10] and in test [11] was over 100 µM each time.
As for `COc1ccc(/C=C(\NC(=O)c2ccccc2)c2nc3ccccc3[nH]2)cc1`, the TGI in test [1], in test [2], in test [3], in [4], in test [5] and in [6] was over 100 µM each time. Further, the TGI is over 100 µM in [7], over 100 µM in test [9], over 100 µM in test [10] and 46.2 µM in test [11].
As for `Cc1ccc(S(=O)(=O)NC2(C=O)CCC(C(C)(C)C)CC2)cc1` (stereo not drawn), the TGI in [1] is over 100 µM; in [2], 99.8 µM; in test [3], 70.8 µM; in [4], 84.5 µM; in [5], 75.4 µM; in test [6], over 100 µM. Moreover, the TGI in [7] is 73.8 µM; in test [9], over 100 µM; in [10] it was 68.7 µM; in test [11], over 100 µM.
